Values joined by “and” are separate entries in the source; they are usually repeats but may differ in a detail not shown here. Identical values can stand only once. Like-named read-outs stand apart in the source and are kept apart here.
How the values were obtained:
[1] = test system: BJ normal skin fibroblast; assay: MTT cytotoxicity test, BJ normal fibroblasts; format: cell-based; settings: Homo sapiens, 48 h treatment
Experimental: The studies were conducted on two breast cancer cell lines—MCF-7 (ER+PR+/HER2-negative) and MDA-MB-231 (ER/PR/HER2-negative) and human normal fibroblast cell line BJ. The cell lines were obtained from American Type Culture Collection (ATCC, Manassas, VA, USA) and were cultured at 37 °C in the presence of 5% CO2 in the atmosphere. The culture media (Eagle’s Minimum Essential Medium for MCF-7 and BJ, Leibovitz’s L-15 Medium for MDA-MB-231, Corning, NY, USA), was supplemented with 10% fetal bovine serum. The cell’s morphology was examined under a Nikon Eclipse Ti inverted phase contrast microscope (Nikon, Tokyo, Japan). The authenticity of tested cell lines was verified by short tandem repeat (STR) genotyping in the Department of Forensic Medicine (Medical University of Lublin, Lublin, Poland).
Cell viability based on metabolic activity was evaluated with the MTT colorimetric test based on the ability of viable cells to cause the transformation of tetrazolium salts MTT (3-[4,5-dimethylthiazol-2-yl]-2,5)diphenyltetrazolium bromide) into purple formazan, by cellular dehydrogenases. The cells were seeded into 96-well plates at a concentration of 2 × 10^5 cells/mL. Once 70–80% confluency was reached, tested compounds were added: ADS10310 and ADS1017 in concentrations ranging from 1 to 250 µM or DMSO as the vehicle in control cultures for the next 48 h (max. DMSO concentration <0.5%). Doxorubicin was used for comparison as the standard chemotherapeutic agent used in breast cancer treatment. After 48 h of incubation cell cultures were supplemented with 20 µL of 5 mg/mL MTT (Thermofisher, Waltham, MA, USA) stock in PBS (Corning, NY, USA), and the incubation was continued for 4 h at 37 °C. […] The solution absorbency was measured at 570 nm, using a PowerWave™ xs microplate spectrophotometer (BioTek Instruments, Winooski, VT, USA). […] IC50 values were determined using the AAT Bioquest IC50 calculator (AAT Bioquest, Inc. Quest Graph™ EC50 Calculator. https://www.aatbio.com/tools/ec50-calculator) (accessed on 6 September 2022).

hH3R = target: T1, hH3R (Homo sapiens, UniProt Q9Y5N1); assay: biochemical; format: binding
T1 construct: expressed in transfected cells
T1 sequence (Q9Y5N1 whole entry): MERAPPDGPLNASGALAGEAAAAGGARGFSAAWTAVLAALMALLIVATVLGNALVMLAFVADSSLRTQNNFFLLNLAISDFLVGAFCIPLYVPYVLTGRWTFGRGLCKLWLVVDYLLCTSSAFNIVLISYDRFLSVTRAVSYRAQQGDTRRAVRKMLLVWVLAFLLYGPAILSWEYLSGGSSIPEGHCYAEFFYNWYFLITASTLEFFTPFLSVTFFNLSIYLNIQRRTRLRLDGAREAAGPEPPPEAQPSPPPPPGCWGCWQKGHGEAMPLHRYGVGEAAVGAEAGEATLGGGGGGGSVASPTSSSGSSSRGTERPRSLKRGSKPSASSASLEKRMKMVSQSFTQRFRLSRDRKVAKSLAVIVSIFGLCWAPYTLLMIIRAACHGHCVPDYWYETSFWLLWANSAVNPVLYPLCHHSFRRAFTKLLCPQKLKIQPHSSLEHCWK
Experimental: All newly synthesized compounds were evaluated as H3R antagonists/inverse agonists on the guinea pig ileum (gpH3R), stimulated electrically to induce contractions. The distinct affinity profile and species-dependent pharmacology of H3R ligands are known. […] Therefore, to compare species differences, all newly synthesized compounds were subjected to radioligand displacement assay in membrane fractions of HEK-293 cells stably expressing hH3R. […] Ex vivo assay for histamine H3R and H1R antagonists were measured on the isolated guinea pig ileum stimulated to contractions by histamine. The pA2-values were calculated according to Arunlakshana and Schild. The radioligand-displacement binding assay was performed in membrane fractions of HEK-293 cells stably expressing hH3R. Cell cultivation and membrane preparation was performed according to Kottke et al.. The Ki values were calculated from the IC50 values using the Cheng–Prusoff equation [37]. The statistical calculations were performed on –log(Ki). […] The inhibitory activities of novel ADS compounds were assessed in spectrophotometric Ellman’s assay using AChE from electric eel (eeAChE) and BuChE from horse serum (eqBuChE).
3.3 hH3R radioligand displacement binding assay.
The radioligand displacement binding assay was performed in membrane fractions of HEK-293 cells stably expressing hH3R. Cell cultivation and membrane preparation was performed according to Kottke et al. [T. Kottke, […]
radioligand displacement assay, radioactively labeled [3H]Nα-methylhistamine was used at a final concentration […]
The total assay volume was set to 200 µL. The compounds were tested in several appropriate concentrations between 100 µM and 0.1 nM. Pipetting was partly done by Freedom Evo® (Tecan).
The membrane fraction (20 […]
µg/well), test compounds and radiolabeled ligand were incubated for 90 minutes at 25 °C while shaking. The bound radioligand was separated from the free radioligand by filtration through GF/B filters pre-treated with 0.3 % (m/v) polyethyleneimine using a cell harvester. Radioactivity was determined by liquid scintillation counting using a MicroBeta® Trilux (Perkin Elmer). The data was obtained in duplicates in at least three independent experiments. Non-specific binding was subtracted from the raw data to calculate specific-binding values. The evaluation was performed with GraphPad Prism 6.1 (San Diego, CA, USA) using non-linear regression (one-site competition with a logarithmic scale). The Ki values were calculated from the IC50 values using the Cheng-Prusoff […]
equation. [C. […] The statistical calculations […]
were performed on –log(Ki).

[2] = test system: MDA-MB-231 breast cancer cells; assay: Apoptosis/necrosis detection (Annexin V-FITC/PI, image cytometry), MDA-MB-231; format: cell-based, human; settings: 48 h
Experimental: The MTT test results prompted further study. Staining with propidium iodide and Annexin V-FITC was performed to distinguish apoptotic from necrotic cell death.
Apoptosis was analyzed using the NucleoCounter® NC-3000™ (Chemometec Inc., Lillerød, Denmark) according to the manufacturer’s protocol using Annexin V from Biotium (Fremont, CA, USA). MCF-7 and MDA-MB-231 cells were seeded into 6-well plates (2 × 10^5 cells/mL) and cultured until 70–80% confluence was reached. […] Scatter plots were used to determine the proportion of healthy cells (Annexin V-negative/PI-negative cells), early apoptotic cells (Annexin V-positive/PI-negative cells), late apoptotic cells (Annexin V-positive/PI-positive cells), and necrotic cells (Annexin V-negative/PI-positive cells). Data were derived from three independent experiments with three replicates.

In the case of `N=C(N)N(CCCCN1CCN(CCCCCCCOc2ccccc2)CC1)Cc1ccccc1` [ADS1017], the IC50 [1] is reported as 39000 nM, the Ki (hH3R; mean ± sem, at least three independent experiments, read-out: hH3R -log(Ki) ± sem (converted)) is reported as 513 nM and the “early apoptotic cells (Q1lr)” value ([2]; MDA-MB-231, IC50 concentration) is reported as 22%. For the same compound, the “late apoptotic cells (Q1ur)” value ([2]; MDA-MB-231, IC50 concentration) was 39%.

With `Cl.Cl.N=C(NCCCCc1ccc(Cl)cc1)NCCCCN1CCCCC1` [ADS10310] the IC50 [1] was 231000 nM, the Ki (hH3R; hH3R Ki) was < 200 nM and 127 nM and the “mode of cell death (in words)” value ([2]; both breast cancer lines, IC50 concentration) was “mainly late apoptotic cells”.

— publication PMC10223552 (Pharmaceuticals, 2023)
